Laboratory results reported in ChEMBL document CHEMBL1148695, “Synthesis and biological activity of nociceptin/orphanin FQ analogues substituted in position 7 or 11 with Calpha,alpha-dialkylated amino acids” (Bioorg Med Chem, 2007).
pEC50, pKi: −log10 of the molar value. Active and inactive are the calls of the source. The calls are words filed in the database; no cut-off is given here. *1 amine or outer side, *2 acyl side, *3 side chain or, on linkers, in order; H or OH if unused. Where a SMILES comes first, the peptide text is derived from it. [ ]: non-standard residue; d: D form. X1 = N[C@@H](Cc1ccccc1)CN(CC(=O)[*:2])[*:1]; Phe(4-F) = N[C@@H](Cc1ccc(F)cc1)C(=O)O; Aib = CC(C)(N)C(=O)O

Experiments:
[1] = biological target: Nociceptin receptor (Mus musculus) (UniProt P35377); test: (§1) Agonist activity at NOP receptor in Swiss mouse vas deferens by [35S]GTP-gamma-S binding assay; assay type: functional, tissue-based
[2] = biological target: Nociceptin receptor (Cavia porcellus) (UniProt P47748); test: (§2) Agonist activity at NOP receptor in Albino guinea pig ileum assessed as effect on electrically stimulated contractions; assay type: functional, tissue-based
[3] = biological target: T1, Nociceptin receptor (Rattus norvegicus, UniProt P35370); test: Antagonist activity at NOP receptor in Sprague-Dawley rat vas deferens assessed as effect on electrically stimulated contractions; assay type: functional, tissue-based; settings: read-out: pA2 (converted)
[4] = biological target: T2, Nociceptin receptor (Cavia porcellus, UniProt P47748); test: Antagonist activity at NOP receptor in Albino guinea pig ileum assessed as effect on electrically stimulated contractions; assay type: functional, tissue-based; settings: read-out: pA2 (converted)
[5] = biological target: T3, Nociceptin receptor (Mus musculus, UniProt P35377); test: Antagonist activity at NOP receptor in Swiss mouse vas deferens by [35S]GTP-gamma-S binding assay; assay type: functional, tissue-based; settings: read-out: pA2 (converted)
[6] = biological target: T3, Nociceptin receptor; test: as §1; assay type: functional, tissue-based
[7] = biological target: T2, Nociceptin receptor; test: as §2; assay type: functional, tissue-based
[8] = biological target: T3, Nociceptin receptor; test: (§3) Agonist activity at NOP receptor in Swiss mouse vas deferens assessed as effect on electrically stimulated contractions; assay type: functional, tissue-based
[9] = biological target: Nociceptin receptor (Mus musculus) (UniProt P35377); test: as §3; assay type: functional, tissue-based
[10] = biological target: T1, Nociceptin receptor; test: Agonist activity at NOP receptor in Sprague-Dawley rat vas deferens assessed as effect on electrically stimulated contractions; assay type: functional, tissue-based
[11] = biological target: Mu-type opioid receptor (Homo sapiens, UniProt P35372); test: Displacement of [3H]diprenorphine from human recombinant mu opioid receptor expressed in CHO cells; assay type: cell-based
[12] = biological target: Delta-type opioid receptor (Homo sapiens, UniProt P41143); test: Displacement of [3H]diprenorphine from human recombinant delta opioid receptor expressed in CHO cells; assay type: cell-based
Chain of Delta-type opioid receptor (P41143 whole entry): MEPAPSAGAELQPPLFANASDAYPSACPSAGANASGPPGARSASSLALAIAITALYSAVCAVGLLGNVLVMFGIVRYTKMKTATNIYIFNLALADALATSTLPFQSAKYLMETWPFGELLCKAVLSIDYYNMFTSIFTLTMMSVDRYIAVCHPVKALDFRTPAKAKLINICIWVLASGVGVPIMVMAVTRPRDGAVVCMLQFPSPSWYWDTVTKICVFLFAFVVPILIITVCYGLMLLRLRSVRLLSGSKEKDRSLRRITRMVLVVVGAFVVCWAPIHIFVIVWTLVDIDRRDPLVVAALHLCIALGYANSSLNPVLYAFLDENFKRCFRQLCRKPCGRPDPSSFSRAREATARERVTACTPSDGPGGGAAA

T2 sequence (P47748 whole entry): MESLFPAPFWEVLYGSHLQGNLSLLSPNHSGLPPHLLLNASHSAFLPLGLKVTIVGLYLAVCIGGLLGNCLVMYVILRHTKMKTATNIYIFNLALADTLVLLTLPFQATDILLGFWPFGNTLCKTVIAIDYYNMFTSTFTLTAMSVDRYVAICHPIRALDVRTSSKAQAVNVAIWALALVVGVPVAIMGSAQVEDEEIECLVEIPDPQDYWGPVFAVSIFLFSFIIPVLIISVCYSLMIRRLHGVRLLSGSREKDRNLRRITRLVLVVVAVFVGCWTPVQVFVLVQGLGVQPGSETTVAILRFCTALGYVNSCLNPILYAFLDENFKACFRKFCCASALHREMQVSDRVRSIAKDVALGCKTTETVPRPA
Chain of Nociceptin receptor (Cavia porcellus) (P47748 whole entry): as above
T3 sequence (P35377 whole entry): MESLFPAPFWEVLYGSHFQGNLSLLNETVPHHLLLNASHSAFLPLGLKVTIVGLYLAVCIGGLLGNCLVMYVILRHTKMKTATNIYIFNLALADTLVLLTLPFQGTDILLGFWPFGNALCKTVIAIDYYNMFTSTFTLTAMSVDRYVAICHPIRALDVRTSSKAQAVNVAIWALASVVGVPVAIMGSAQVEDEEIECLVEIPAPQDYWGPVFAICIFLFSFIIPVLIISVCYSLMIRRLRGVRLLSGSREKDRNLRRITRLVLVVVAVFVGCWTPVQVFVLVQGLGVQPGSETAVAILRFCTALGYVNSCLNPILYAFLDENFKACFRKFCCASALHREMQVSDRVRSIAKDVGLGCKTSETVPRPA
Chain of Nociceptin receptor (Mus musculus) (P35377 whole entry): as above
T1 sequence (P35370 whole entry): as the sequence (P35377 whole entry) above, with F9Y, A335S counted along it
Chain of Mu-type opioid receptor (P35372 whole entry): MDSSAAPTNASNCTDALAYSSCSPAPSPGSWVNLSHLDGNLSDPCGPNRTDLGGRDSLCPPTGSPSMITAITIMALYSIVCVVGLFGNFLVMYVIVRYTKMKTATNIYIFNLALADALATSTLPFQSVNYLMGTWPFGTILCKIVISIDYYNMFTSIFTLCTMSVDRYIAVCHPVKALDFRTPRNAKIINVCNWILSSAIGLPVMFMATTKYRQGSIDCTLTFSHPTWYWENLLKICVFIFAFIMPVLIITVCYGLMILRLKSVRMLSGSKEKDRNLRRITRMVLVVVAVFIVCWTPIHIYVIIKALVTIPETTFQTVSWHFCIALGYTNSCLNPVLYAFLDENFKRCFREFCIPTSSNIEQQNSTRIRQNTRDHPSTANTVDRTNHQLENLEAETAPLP

## CC(C)C[C@H](NC(=O)[C@H](CCCCN)NC(=O)[C@H](CCCNC(=N)N)NC(=O)[C@H](C)NC(=O)[C@H](CO)NC(=O)[C@H](CCCCN)NC(=O)[C@H](CCCNC(=N)N)NC(=O)[C@H](C)NC(=O)CNC(=O)[C@@H](NC(=O)[C@H](Cc1ccccc1)NC(=O)CNC(=O)CNC(=O)[C@@H](N)Cc1ccccc1)[C@@H](C)O)C(=O)N[C@@H](C)C(=O)N[C@@H](CC(N)=O)C(=O)N[C@@H](CCC(N)=O)C(=O)O
[1]
  Emax: 87%
[2]
  Emax: 45%

## C[C@H](NC(=O)[C@H](CO)NC(=O)[C@H](CCCCN)NC(=O)[C@H](CCCNC(=N)N)NC(=O)C(C)(C)NC(=O)CNC(=O)[C@@H](NC(=O)[C@H](Cc1ccccc1)NC(=O)CNC(=O)CNC(=O)[C@@H](N)Cc1ccccc1)[C@@H](C)O)C(=O)N[C@@H](CCCNC(=N)N)C(=O)N[C@@H](CCCCN)C(=O)N[C@@H](CCCNC(=N)N)C(=O)N[C@@H](CCCCN)C(=O)N[C@@H](CC(N)=O)C(=O)N[C@@H](CCC(N)=O)C(N)=O
[1]
  Activity: inactive
[2]
  Activity: inactive

## C[C@H](NC(=O)[C@H](CO)NC(=O)[C@H](CCCCN)NC(=O)[C@H](CCCNC(=N)N)NC(=O)C(C)(C)NC(=O)CNC(=O)[C@@H](NC(=O)[C@H](Cc1ccc(F)cc1)NC(=O)CNC(=O)CNC[C@@H](N)Cc1ccccc1)[C@@H](C)O)C(=O)N[C@@H](CCCNC(=N)N)C(=O)N[C@@H](CCCCN)C(=O)N[C@@H](CCCNC(=N)N)C(=O)N[C@@H](CCCCN)C(=O)N[C@@H](CC(N)=O)C(=O)N[C@@H](CCC(N)=O)C(N)=O (H-[X1]G[Phe(4-F)]TG[Aib]RKSARKRKNQ-NH2)
[3]
  Kb: 0.603 nM
[4]
  Kb: 0.316 nM
[5]
  Kb: 0.794 nM

## CC(C)C[C@H](NC(=O)[C@H](CCCCN)NC(=O)[C@H](CCCN=C(N)N)NC(=O)[C@H](C)NC(=O)[C@H](CO)NC(=O)[C@H](CCCCN)NC(=O)[C@H](CCCN=C(N)N)NC(=O)[C@H](C)NC(=O)CNC(=O)[C@@H](NC(=O)[C@H](Cc1ccccc1)NC(=O)CNC(=O)CNC(=O)[C@@H](N)Cc1ccccc1)[C@@H](C)O)C(=O)N[C@@H](C)C(=O)N[C@@H](CC(N)=O)C(=O)N[C@@H](CCC(N)=O)C(=O)O [NOCICEPTIN]
[6]
  pEC50: 7.45
[7]
  pEC50: 8.05

## CCCC(CCC)(NC(=O)[C@H](CO)NC(=O)[C@H](CCCCN)NC(=O)[C@H](CCCNC(=N)N)NC(=O)[C@H](C)NC(=O)CNC(=O)[C@@H](NC(=O)[C@H](Cc1ccccc1)NC(=O)CNC(=O)CNC(=O)[C@@H](N)Cc1ccccc1)[C@@H](C)O)C(=O)N[C@@H](CCCNC(=N)N)C(=O)N[C@@H](CCCCN)C(=O)N[C@@H](CC(C)C)C(=O)N[C@@H](C)C(=O)N[C@@H](CC(N)=O)C(=O)N[C@@H](CCC(N)=O)C(N)=O
[8]
  pEC50: 7.53
[9]
  Emax: 86%

## CC(C)C[C@H](NC(=O)[C@H](CCCCN)NC(=O)[C@H](CCCNC(=N)N)NC(=O)[C@H](C)NC(=O)[C@H](CO)NC(=O)[C@H](CCCCN)NC(=O)[C@H](CCCNC(=N)N)NC(=O)C1(NC(=O)CNC(=O)[C@@H](NC(=O)[C@H](Cc2ccccc2)NC(=O)CNC(=O)CNC(=O)[C@@H](N)Cc2ccccc2)[C@@H](C)O)CCCC1)C(=O)N[C@@H](C)C(=O)N[C@@H](CC(N)=O)C(=O)N[C@@H](CCC(N)=O)C(N)=O
[8]
  pEC50: 7.60
[9]
  Emax: 98%

## CC(C)C[C@H](NC(=O)[C@H](CCCCN)NC(=O)[C@H](CCCNC(=N)N)NC(=O)[C@H](C)NC(=O)[C@H](CO)NC(=O)[C@H](CCCCN)NC(=O)[C@H](CCCNC(=N)N)NC(=O)C1(NC(=O)CNC(=O)[C@@H](NC(=O)[C@H](Cc2ccccc2)NC(=O)CNC(=O)CNC(=O)[C@@H](N)Cc2ccccc2)[C@@H](C)O)CC1)C(=O)N[C@@H](C)C(=O)N[C@@H](CC(N)=O)C(=O)N[C@@H](CCC(N)=O)C(N)=O
[8]
  pEC50: 7.08
[9]
  Emax: 7.08%

## CC(C)C[C@H](NC(=O)[C@H](CCCCN)NC(=O)[C@H](CCCNC(=N)N)NC(=O)C1(NC(=O)[C@H](CO)NC(=O)[C@H](CCCCN)NC(=O)[C@H](CCCNC(=N)N)NC(=O)[C@H](C)NC(=O)CNC(=O)[C@@H](NC(=O)[C@H](Cc2ccccc2)NC(=O)CNC(=O)CNC(=O)[C@@H](N)Cc2ccccc2)[C@@H](C)O)CC1)C(=O)N[C@@H](C)C(=O)N[C@@H](CC(N)=O)C(=O)N[C@@H](CCC(N)=O)C(N)=O
[8]
  pEC50: 7.78
[9]
  Emax: 91%

## C[C@H](NC(=O)[C@H](CO)NC(=O)[C@H](CCCCN)NC(=O)[C@H](CCCNC(=N)N)NC(=O)C(C)(C)NC(=O)CNC(=O)[C@@H](NC(=O)[C@H](Cc1ccc(F)cc1)NC(=O)CNC(=O)CNC(=O)[C@@H](N)Cc1ccccc1)[C@@H](C)O)C(=O)N[C@@H](CCCNC(=N)N)C(=O)N[C@@H](CCCCN)C(=O)N[C@@H](CCCNC(=N)N)C(=O)N[C@@H](CCCCN)C(=O)N[C@@H](CC(N)=O)C(=O)N[C@@H](CCC(N)=O)C(N)=O
[10]
  pEC50: 8.34
[6]
  pEC50: 9.24
[1]
  Emax: 84%
[2]
  Emax: 32%
[7]
  pEC50: 9.17

## CC(C)C[C@H](NC(=O)[C@H](CCCCN)NC(=O)[C@H](CCCNC(=N)N)NC(=O)C(C)(C)NC(=O)[C@H](CO)NC(=O)[C@H](CCCCN)NC(=O)[C@H](CCCNC(=N)N)NC(=O)[C@H](C)NC(=O)CNC(=O)[C@@H](NC(=O)[C@H](Cc1ccccc1)NC(=O)CNC(=O)CNC(=O)[C@@H](N)Cc1ccccc1)[C@@H](C)O)C(=O)N[C@@H](C)C(=O)N[C@@H](CC(N)=O)C(=O)N[C@@H](CCC(N)=O)C(N)=O
[8]
  pEC50: 8.05
[9]
  Emax: 91%

## C[C@H](NC(=O)[C@H](CO)NC(=O)[C@H](CCCCN)NC(=O)[C@H](CCCNC(=N)N)NC(=O)C(C)(C)NC(=O)CNC(=O)[C@@H](NC(=O)[C@H](Cc1ccccc1)NC(=O)CNC(=O)CNC(=O)CNCc1ccccc1)[C@@H](C)O)C(=O)N[C@@H](CCCNC(=N)N)C(=O)N[C@@H](CCCCN)C(=O)N[C@@H](CCCNC(=N)N)C(=O)N[C@@H](CCCCN)C(=O)N[C@@H](CC(N)=O)C(=O)N[C@@H](CCC(N)=O)C(N)=O
[3]
  Kb: 87.1 nM
[4]
  Kb: 46.8 nM
[11]
  pKi: < 5.00
[12]
  pKi: < 5.00
[5]
  Kb: 34.7 nM
